# Laboratory results from patent US8287888B2, “Thermosensitive polyphosphazene-bioactive molecule conjugates, preparation method thereof and use thereof” (Korea Institute of Science and Technology, priority 2006, dated 2012).
# What was measured:
# [1] = Sol-gel phase transition with change of temperature (Brookfield rheometer); format: physicochemical; details: for Gel solidity (maximum viscosity of the polymer solution) / Max. gelling temp. (temperature where the viscosity of the polymer solution reaches the maximum point): 10 wt % in phosphate buffered saline (pH 7.4)
# Experimental: The poly(organophosphazene) conjugated with a drug or bioactivemolecules obtained in Examples 1 to 11 were respectively dissolved in phosphate buffered saline (pH 7.4) at 4° C. so as to make solutions with concentrations of 10 wt %. The solutions were put into a chamber of a Brookfield DV-III+ Rheometer equipped with a thermostatic bath (TC-501).
# [2] = system: Stomach cancer cells, SNU-601; assay: Anti-cancer activity in vivo of hydrogel conjugated with doxorubicin; parameters: species or system nude mouse (Balb/C)
# Experimental: The anti-cancer activity in vivo of the poly(organophosphazene) hydrogel conjugated with doxorubicin prepared by the method of Example 5 was determined by the following method.
# A nude mouse (OrientalBio, Balb/C, female of 5-weeks old, 20 g) was used as an animal model for animal experimentation for an in vivo test. Stomach cancer cells, SNU-601 (1×10^7 cells, 0.2 ml, the Korean Cell Line Bank), were injected into the dorsum of the mouse. A polymer solution containing the 10 wt % poly(organophosphazene)-doxorubicin conjugate of Example 5 in phosphate buffered saline (pH 7.4) was prepared. 0.1 ml and 0.2 ml of the solution was respectively injected into the cancer cells, and the change in the size of the cancer cells was measured.
# When the solution is injected in an amount as much as 0.1 ml, the amount of doxorubicin injected is 30 mg per 1 kg of the mouse weight. When the solution is injected in an amount as much as 0.2 ml, the amount of doxorubicin injected is 60 mg per 1 kg of the mouse weight.
# (§1) As the control group, the magnitude transition of the cancer cell into which doxorubicin was injected in the amount of 30 mg per 1 kg of the mouse weight and that to which saline is administered instead of the anti-cancer drug were measured respectively. The number of mouse used was 10 heads respectively.
# [3] = system: human breast adenocarcinoma (MCF-7); assay: Anti-cancer activity in vitro, MTT; format: cell-based; details: for IC50: Homo sapiens
# Experimental: (§2) In order to find out anticancer activity in vitro of the poly(organophosphazene) conjugated with anti-cancer drug of the present invention, the trial as follows was performed about the human breast adenocarcinoma (MCF-7, the Korea Cell Line Bank) and the human cervix adenocarcinoma (Hela, the Korea Cell Line Bank).
# (§3) For the in vitro cell experiment, in order to measure the genesistasis concentration to 50% (IC50) toward the cancer cell of the poly(organophosphazene) conjugated with anticancer drug, the analytical method using 3-(4,5-dimethylthiazol-2-yl)-2,5-diphenyl-2H-tetrazolium bromide (MTT) was performed [T. Mosmann, J. Immunol. Method, 65, (1985) 55].
# (§4) The materials for to measuring were respectively melted in the DMSO (dimethylsulfoxide) of the small amount, and they were diluted to the distilled water with 200 times. The materials solution were added to the cancer cell that is MCF-7(the Korea Cell Line Bank) and Hela (the Korea Cell Line Bank). Then, they were added to 96-well microtiter plater to 1.0×10^4 cell/ml (the concentration of the cancer cell). And they were cultivated for 2, 3, 4 days, respectively, with 37° C. in 5% CO2 condition.
# (§5) MTT solution (20 μl) was mixed the cultivated cell with, and they were more cultivated for 4 hours with 37° C. in 5% CO2 condition. After the upper culture medium of each cell was removed, DMSO (100 μl) was added to a well and they were shaken in the room temperature to the plate shaker with for 20 minutes, thereby dissolving the formazan crystal generated by reducing of MTT.
# [4] = system: human cervix adenocarcinoma (Hela); assay: Anti-cancer activity in vitro, MTT; format: cell-based; details: for IC50: Homo sapiens, HeLa
# Experimental: as §2, §3, §4, §5
# [5] = Hydrolysis of the polymer with time by GPC molecular weight; format: physicochemical; details: 10 wt % in PBS pH 7.4, 37° C., compared among Examples 3, 4 and 9
# stomach cancer, SNU-601 = assay: Anti-cancer activity in vivo of hydrogel conjugated with paclitaxel; parameters: species or system nude mouse (Balb/C)
# Experimental: The anti-cancer activity in vivo of the poly(organophosphazene) hydrogel conjugated with paclitaxel prepared by the method of Example 1 was determined by the following method.
# A nude mouse (OrientalBio, Balb/C, female of 5-weeks old, 20 g) was used as an animal model for animal experimentation for an in vivo test. Cells of stomach cancer, SNU-601 (1×10^7 cells, 0.2 ml, the Korean Cell Line Bank), were injected into the dorsum of the mouse. A polymer solution containing the 10 wt % poly(organophosphazene)-paclitaxel conjugate of Example 1 in phosphate buffered saline (pH 7.4) was prepared. 0.1 ml and 0.2 ml of the solution were respectively injected into the cancer cells, and the change in the size of the cells was measured.
# When the solution is injected in an amount as much as 0.1 ml, the amount of paclitaxel injected is 10 mg per 1 kg of the mouse weight. When the solution is injected in an amount as much as 0.2 ml, the amount of paclitaxel injected is […] per 1 kg of the mouse weight.
# as §1, with “which paclitaxel” for “which doxorubicin”, “of 60” for “of 30”, “that of the cancer cell into” for “that to”, “saline was” for “saline is”
compound,measurement,setting,value
poly[(isoleucineethylester)(aminomethoxypolyethyleneglycol 550)(glycylglycine)(glycylglycylglycylethylester)(glycylglycylglycin-arginine-glycin-asparagine-cerinicacidpeptied)phosphazene] [Example 10],Gel solidity (maximum viscosity of the polymer solution),[1],238 Pa · s
same,Max. gelling temp. (temperature where the viscosity of the polymer solution reaches the maximum point),[1],42 °C
poly[(isoleucineethylester)(aminomethoxypolyethyleneglycol 550)(glycylglycine)(glycylglycyldoxorubicin)phosphazene] [Example 5],size of the cancer cells decreased to,"[2]; 0.1 ml intratumoral (doxorubicin 30 mg/kg), after 14 days",68%
same,size of the cancer cells decreased to,"[2]; 0.1 ml intratumoral (doxorubicin 30 mg/kg), after 26 days",173%
same,size of the cancer cells decreased to,"[2]; 0.1 ml intratumoral (doxorubicin 30 mg/kg), after 28 days",168%
same,size of the cancer cells decreased to,"[2]; 0.2 ml intratumoral (doxorubicin 60 mg/kg), after 14 days",155%
same,size of the cancer cells decreased to,"[2]; 0.2 ml intratumoral (doxorubicin 60 mg/kg), after 22 days",195%
same,size of the cancer cells decreased to,"[2]; 0.2 ml intratumoral (doxorubicin 60 mg/kg), after 28 days",182%
same,mortality,"[2]; doxorubicin concentration of 30 mg/kg as hydrogel, 10 mice per group",did not die
same,mortality,"[2]; doxorubicin concentration of 60 mg/kg as hydrogel, 10 mice per group",did not die
same,Gel solidity (maximum viscosity of the polymer solution),[1],1477 Pa · s
same,Max. gelling temp. (temperature where the viscosity of the polymer solution reaches the maximum point),[1],39 °C
poly[(isoleucineethylester)(aminomethoxypolyethyleneglycol 550)(glycylglycine)(glycylglycyldoxorubicin)phosphazene] [Example 4],Gel solidity (maximum viscosity of the polymer solution),[1],88 Pa · s
same,Max. gelling temp. (temperature where the viscosity of the polymer solution reaches the maximum point),[1],37 °C
same,Anti-cancer activity [IC50],"[3]; MCF-7, 2nd day",2.829 mg/L
same,Anti-cancer activity [IC50],"[3]; MCF-7, 3rd day",2.801 mg/L
same,Anti-cancer activity [IC50],"[3]; MCF-7, 4th day",1.641 mg/L
same,Anti-cancer activity [IC50],[4]; 2nd day,1.425 mg/L
same,Anti-cancer activity [IC50],[4]; 3rd day,0.892 mg/L
same,Anti-cancer activity [IC50],[4]; 4th day,0.283 mg/L
poly[(isoleucineethylester)(aminomethoxypolyethyleneglycol 750)(glycylglycine)(glycylglycyldoxorubicin)phosphazene] [Example 6],Gel solidity (maximum viscosity of the polymer solution),[1],313 Pa · s
same,Max. gelling temp. (temperature where the viscosity of the polymer solution reaches the maximum point),[1],46 °C
poly[(isoleucineethylester)(aminomethoxypolyethyleneglycol 550)(glycylglycine)(glycylglycylglycmethylester)(glycylglycylglycin-arginine-glycin-asparagine-cerinicacidpeptied)phosphazene] [Example 9],Gel solidity (maximum viscosity of the polymer solution),[1],130 Pa · s
same,Max. gelling temp. (temperature where the viscosity of the polymer solution reaches the maximum point),[1],46 °C
same,viscosity in 37° C.,"[1]; compared among Examples 3, 4 and 9",the lowest viscosity
same,speed of hydrolysis (reduced molecular weight by GPC),[5],the most quickly hydrolyzed
poly[(isoleucineethylester)(aminomethoxypolyethyleneglycol 550)(glycylglycine)(glycylglycylpaclitaxel)phosphazene] [Example 1],Gel solidity (maximum viscosity of the polymer solution),[1],128 Pa · s
same,Max. gelling temp. (temperature where the viscosity of the polymer solution reaches the maximum point),[1],40 °C
same,Anti-cancer activity [IC50],"[3]; MCF-7, 2nd day",0.025 mg/L
same,Anti-cancer activity [IC50],"[3]; MCF-7, 3rd day",0.018 mg/L
same,Anti-cancer activity [IC50],"[3]; MCF-7, 4th day",0.003 mg/L
same,Anti-cancer activity [IC50],[4]; 2nd day,0.099 mg/L
same,Anti-cancer activity [IC50],[4]; 3rd day,0.057 mg/L
same,Anti-cancer activity [IC50],[4]; 4th day,0.022 mg/L
same,size of the cancer cells decreased to,"stomach cancer, SNU-601; 0.1 ml intratumoral (paclitaxel 10 mg/kg), after 26 days",60%
same,size of the cancer cells decreased to,"stomach cancer, SNU-601; 0.1 ml intratumoral (paclitaxel 10 mg/kg), after 34 days",57%
same,size of the cancer cells decreased to,"stomach cancer, SNU-601; 0.2 ml intratumoral (paclitaxel 30 mg/kg), after 26 days",81%
same,size of the cancer cells decreased to,"stomach cancer, SNU-601; 0.2 ml intratumoral (paclitaxel 30 mg/kg), after 34 days",81%
"CC(=O)O[C@H]1C(=O)[C@@]2(C)[C@H]([C@H](OC(=O)c3ccccc3)[C@]3(O)C[C@H](OC(=O)[C@H](O)[C@@H](NC(=O)c4ccccc4)c4ccccc4)C(C)=C1C3(C)C)[C@]1(OC(C)=O)CO[C@@H]1C[C@@H]2O [paclitaxel, reference compound]",IC50,"[3]; MCF7, MCF-7, 2nd day",0.022 mg/L
same,IC50,"[3]; MCF7, MCF-7, 3rd day",0.006 mg/L
same,IC50,"[3]; MCF7, MCF-7, 4th day",0.002 mg/L
same,IC50,[4]; 2nd day,0.083 mg/L
same,IC50,[4]; 3rd day,0.021 mg/L
same,IC50,[4]; 4th day,0.014 mg/L
same,mice died due to toxicity,"stomach cancer, SNU-601; 60 mg/kg, after 10 days, 10 mice per group",8 mouse heads
"COc1cccc2c1C(=O)c1c(O)c3c(c(O)c1C2=O)C[C@@](O)(C(=O)CO)C[C@@H]3O[C@H]1C[C@H](N)[C@H](O)[C@H](C)O1 [doxorubicin, reference compound]",mortality due to toxicity,"[2]; free doxorubicin 30 mg/kg, after 14 days, 10 mice per group",all of mouse died
same,IC50,"[3]; MCF7, MCF-7, 2nd day",2.29 mg/L
same,IC50,"[3]; MCF7, MCF-7, 3rd day",1.69 mg/L
same,IC50,"[3]; MCF7, MCF-7, 4th day",1 mg/L
same,IC50,[4]; 2nd day,0.321 mg/L
same,IC50,[4]; 3rd day,0.692 mg/L
same,IC50,[4]; 4th day,0.19 mg/L
poly[(isoleucineethylester)(aminomethoxypolyethyleneglycol 550)(glycylglycine)(glycylglycylglycin-arginine-glycin-asparagine-cerinicacidpeptied)phosphazene] [Example 8],Gel solidity (maximum viscosity of the polymer solution),[1],318 Pa · s
same,Max. gelling temp. (temperature where the viscosity of the polymer solution reaches the maximum point),[1],39 °C
poly[(isoleucineethylester)(aminomethoxypolyethyleneglycol 550)(glycylglycine)(glycylglycin)(glycylglycylglycin-arginine-glycin-asparagine-cerinicacidpeptied)phosphazene] [Example 11],Gel solidity (maximum viscosity of the polymer solution),[1],155 Pa · s
same,Max. gelling temp. (temperature where the viscosity of the polymer solution reaches the maximum point),[1],44 °C
poly[(isoleucineethylester)(aminomethoxypolyethyleneglycol 550)(glycylglycine)(glycylglycylglycin-arginine-glycin-asparagine-cerinicacidpeptied)phosphazene] [Example 7],Gel solidity (maximum viscosity of the polymer solution),[1],145 Pa · s
same,Max. gelling temp. (temperature where the viscosity of the polymer solution reaches the maximum point),[1],42 °C
poly[(isoleucineethylester)(aminomethoxypolyethyleneglycol 550)(glycylglycine)(glycylglycylpaclitaxel)phosphazene] [Example 2],Gel solidity (maximum viscosity of the polymer solution),[1],230 Pa · s
same,Max. gelling temp. (temperature where the viscosity of the polymer solution reaches the maximum point),[1],38 °C
same,Anti-cancer activity [IC50],"[3]; MCF-7, 2nd day",0.027 mg/L
same,Anti-cancer activity [IC50],"[3]; MCF-7, 3rd day",0.021 mg/L
same,Anti-cancer activity [IC50],"[3]; MCF-7, 4th day",0.007 mg/L
same,Anti-cancer activity [IC50],[4]; 2nd day,0.082 mg/L
same,Anti-cancer activity [IC50],[4]; 3rd day,0.079 mg/L
same,Anti-cancer activity [IC50],[4]; 4th day,0.048 mg/L
